Measured values taken from patent US11806393B2, “Flavivirus peptide sequences, epitopes, and methods and uses thereof” (priority 2017, dated 2023).

Test system: CD8+ T cells
Experiment: IFNγ-ELISPOT of predicted H-2b-binding ZIKV peptides
Format: cell-based, mouse
Conditions: CD8+ T cells of mice infected with MR766 or FSS13025, day 7; positive: SFC per 10^6 CD8+ T cells ≥20 and stimulation index ≥2
Description: CD8^+ T cells were isolated by magnetic bead positive selection (Miltenyi Biotec, Germany). A total of 2×10^5 CD8^+ T cells were stimulated with 1×10^5 LPS-blast cells as antigen presenting cells (APCs) and 10 μg of individual ZIKV-derived peptide in 96-well flat-bottom plates (IMMOBILON™-P; Millipore, MA) coated with anti-mouse IFNγ monoclonal antibody (mAb) (clone AN18; Mabtech, Sweden) in triplicate. IFNγ-ELISPOT was performed as previously detailed (Elong Ngono et al., 2016). Positive peptides were those with a number of spot-forming cells (SFC) per 10^6 CD8^+ T cells ≥20 and a stimulation index ≥2 based on the negative control (DMSO). […]
The following results are with reference to FIG. 3A and FIG. 3B, where five-week-old LysMCre^+IFNAR^fl/fl were infected retro-orbitally with 10^4 FFU of ZIKV MR766 or FSS13025. […] A total of 244 peptides from ZIKV strains predicted to bind H-2Kb and H-2db with high affinity were screened. Two independent experiments for each ZIKV strain (n=5 mice for each experiment) were performed in triplicate per peptide. The data are expressed as the mean of spot forming cells (SFC) per 10^6 CD8^+ T cells, and error bars are represented as SEM. One-way ANOVA was used to compare the mean of each peptide with the control (DMSO) ([…]). […] The dotted line corresponds to the average amount of IFNγ produced by MOCK mice when stimulated with positive ZIKV-derived peptides (0.19% of IFNγ+CD8^+ T cells).

Substance	Strains (ZIKV strain for which the peptide induced a positive T cell response, IFNγ-ELISPOT)
1 (AAFTFTKV) [compound 1]	MR766
2 (AAGAWYVYV) [compound 2]	MR766
3 (ISFATTLGV) [compound 3]	MR766
4 (MSYECPML) [compound 4]	MR766
5 (PSVRNGNEI) [compound 5]	MR766
6 (RAIWYMWL) [compound 6]	MR766
7 (RQVMNIVSSWL) [compound 7]	MR766
8 (SSIAARGYI) [compound 8]	MR766
9 (SSLVNGVVRL) [compound 9]	MR766
10 (SSWLWKEL) [compound 10]	MR766
11 (TGWSNWEEV) [compound 11]	MR766
12 (TTVSNMAEV) [compound 12]	MR766
13 (VMIFLSTAV) [compound 13]	MR766
14 (YSLECDPAVI) [compound 14]	MR766
15 (AAFTFTKI) [compound 15]	FSS
16 (SSLINGVVRL) [compound 16]	FSS
17 (TLGMNKCYI) [compound 17]	FSS
18 (IMVAVGLL) [compound 18]	MR766/FSS
19 (ATMSYECPM) [compound 19]	MR766/FSS
20 (CAEAPNMKVI) [compound 20]	MR766/FSS
21 (IGVSNRDFV) [compound 21]	MR766/FSS
22 (MAVDMQTLTPV) [compound 22]	MR766/FSS
23 (RMAVLGDTA) [compound 23]	MR766/FSS
24 (RSYCYEASI) [compound 24]	MR766/FSS
